Type in all cases: biochemical
Common to all, as to conditions: 10 μM EP009

Assay [1] has as its target ABL1(E255K)-phosphorylated (Homo sapiens, UniProt P00519, E255K). Nature of the assay: Kinase panel: ABL1(E255K)-phosphorylated. The method, then: (§1) Achieving JAK3 selectivity remains a significant challenge in the development of new small molecules for the treatment of cancer and immune-derived diseases. As such, the inventors employed cell-based screening assays of small-molecule libraries based upon the chemical scaffold of the established JAK3 inhibitor NC1153 (Stepkowski et al., J Immunol. (2005), 175(7):4236-4246) EP009 (FIG. 2A) was selected as a lead compound due to improved intrinsic stability (>95% purity in various solvents at 37° C. for 24 hours; FIG. 3) and high-degree of JAK3 selectivity. To test JAK3 versus JAK2 specificity of EP009, the IL-2/JAK3-dependent Kit225, and IL-3/JAK2-dependent BaF/3 cell lines were used. Kit225 and BaF/3 cells growing in the presence of IL-2 or IL-3, respectively, were treated with ascending concentrations of EP009 for 12 hours and cellular JAK3 and JAK2 tyrosine phosphorylation levels detected by Western blot analysis (FIGS. 2B and 2C). Following densitometric analysis, EP009 was determined to dose-dependently reduce IL-2-mediated JAK3 tyrosine phosphorylation with a cellular 50% inhibitory concentration (IC50) between 10 and 20 μM (FIG. 2B). […] To globally evaluate specificity, the inhibitory activity of EP009 was measured against a panel of protein kinases distributed throughout the kinome using the scanEDGE profiling service (KINOMEscan). […]

The target in the next assay is BRAF(V600E) (Homo sapiens, UniProt P15056, V600E). Nature of the assay: Kinase panel: BRAF(V600E). How it is done:
as §1

A further assay deals with IKK-beta (Homo sapiens, UniProt O14920). Nature of the assay: Kinase panel: IKK-beta. The method, then:
as §1

Another assay concerns the target JNK2 (Homo sapiens, UniProt P45984). Nature of the assay: Kinase panel: JNK2. How it is done: as §1
The target of the next assay is MAP3K4 (Homo sapiens, UniProt Q9Y6R4). Nature of the assay: Kinase panel: MAP3K4. How it is done: as §1
Sequence of MAP3K4 (Q9Y6R4 whole entry): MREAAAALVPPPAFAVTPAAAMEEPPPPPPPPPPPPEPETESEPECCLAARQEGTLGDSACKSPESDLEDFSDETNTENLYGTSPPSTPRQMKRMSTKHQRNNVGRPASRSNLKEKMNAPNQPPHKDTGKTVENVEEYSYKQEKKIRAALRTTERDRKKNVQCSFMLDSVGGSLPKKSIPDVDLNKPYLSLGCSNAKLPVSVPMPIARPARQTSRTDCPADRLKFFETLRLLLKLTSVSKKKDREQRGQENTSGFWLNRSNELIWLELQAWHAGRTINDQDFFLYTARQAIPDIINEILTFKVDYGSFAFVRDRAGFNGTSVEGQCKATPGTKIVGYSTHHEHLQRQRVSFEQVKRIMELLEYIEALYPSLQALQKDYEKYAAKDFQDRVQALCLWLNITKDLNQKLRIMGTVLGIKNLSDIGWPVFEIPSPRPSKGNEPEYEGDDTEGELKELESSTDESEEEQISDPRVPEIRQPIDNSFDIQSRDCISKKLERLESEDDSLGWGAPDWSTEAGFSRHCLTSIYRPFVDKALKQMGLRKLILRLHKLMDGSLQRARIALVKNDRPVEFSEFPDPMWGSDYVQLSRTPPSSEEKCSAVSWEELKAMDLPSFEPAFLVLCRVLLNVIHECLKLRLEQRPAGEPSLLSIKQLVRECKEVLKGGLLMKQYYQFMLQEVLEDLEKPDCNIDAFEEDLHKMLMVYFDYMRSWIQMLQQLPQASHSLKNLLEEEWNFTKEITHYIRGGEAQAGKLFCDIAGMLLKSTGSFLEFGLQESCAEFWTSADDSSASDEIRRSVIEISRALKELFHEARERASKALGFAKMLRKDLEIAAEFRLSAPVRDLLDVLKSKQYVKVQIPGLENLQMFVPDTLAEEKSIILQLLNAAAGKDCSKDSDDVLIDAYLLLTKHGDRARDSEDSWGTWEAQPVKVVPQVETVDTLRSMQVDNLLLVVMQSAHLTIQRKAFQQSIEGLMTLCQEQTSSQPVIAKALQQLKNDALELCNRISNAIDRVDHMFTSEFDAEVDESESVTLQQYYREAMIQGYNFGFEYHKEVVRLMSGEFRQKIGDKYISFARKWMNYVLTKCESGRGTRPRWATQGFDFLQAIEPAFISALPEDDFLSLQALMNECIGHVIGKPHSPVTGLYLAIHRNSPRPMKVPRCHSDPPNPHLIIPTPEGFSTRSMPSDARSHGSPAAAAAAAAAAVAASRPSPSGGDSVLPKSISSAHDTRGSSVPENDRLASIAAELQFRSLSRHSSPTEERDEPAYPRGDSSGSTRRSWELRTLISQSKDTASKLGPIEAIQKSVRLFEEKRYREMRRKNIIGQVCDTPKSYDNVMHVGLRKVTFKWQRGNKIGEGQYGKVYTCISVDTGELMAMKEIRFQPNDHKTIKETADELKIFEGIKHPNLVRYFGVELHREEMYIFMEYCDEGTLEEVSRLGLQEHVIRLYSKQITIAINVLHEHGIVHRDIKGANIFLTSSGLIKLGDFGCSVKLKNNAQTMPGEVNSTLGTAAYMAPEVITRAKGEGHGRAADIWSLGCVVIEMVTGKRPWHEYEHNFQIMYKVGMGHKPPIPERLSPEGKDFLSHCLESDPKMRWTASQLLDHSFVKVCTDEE

The results in this text go back to US9371265B2, “Compositions and methods related to inhibitors of JAK kinase” (EP PHARMA, INC., priority 2012, dated 2016).

Sequence of IKK-beta (O14920 whole entry): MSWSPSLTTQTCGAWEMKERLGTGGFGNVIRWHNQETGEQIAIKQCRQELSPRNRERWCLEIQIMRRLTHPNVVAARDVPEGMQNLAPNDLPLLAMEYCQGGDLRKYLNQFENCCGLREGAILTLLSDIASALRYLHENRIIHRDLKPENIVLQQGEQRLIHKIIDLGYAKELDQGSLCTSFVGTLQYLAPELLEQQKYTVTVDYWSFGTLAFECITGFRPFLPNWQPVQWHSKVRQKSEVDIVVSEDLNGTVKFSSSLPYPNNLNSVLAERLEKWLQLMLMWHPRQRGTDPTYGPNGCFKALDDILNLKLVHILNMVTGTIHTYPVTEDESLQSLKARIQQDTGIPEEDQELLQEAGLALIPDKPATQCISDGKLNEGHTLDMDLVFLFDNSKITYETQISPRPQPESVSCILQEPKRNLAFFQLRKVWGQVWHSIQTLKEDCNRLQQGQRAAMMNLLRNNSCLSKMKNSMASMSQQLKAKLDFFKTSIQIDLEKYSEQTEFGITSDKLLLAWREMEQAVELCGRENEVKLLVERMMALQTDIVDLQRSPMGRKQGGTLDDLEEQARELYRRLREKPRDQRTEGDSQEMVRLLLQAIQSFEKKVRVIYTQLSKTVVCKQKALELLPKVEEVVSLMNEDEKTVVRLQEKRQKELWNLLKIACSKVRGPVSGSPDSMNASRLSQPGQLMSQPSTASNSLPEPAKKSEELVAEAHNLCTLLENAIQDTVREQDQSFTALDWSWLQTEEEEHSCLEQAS
Sequence of JNK2 (P45984 whole entry): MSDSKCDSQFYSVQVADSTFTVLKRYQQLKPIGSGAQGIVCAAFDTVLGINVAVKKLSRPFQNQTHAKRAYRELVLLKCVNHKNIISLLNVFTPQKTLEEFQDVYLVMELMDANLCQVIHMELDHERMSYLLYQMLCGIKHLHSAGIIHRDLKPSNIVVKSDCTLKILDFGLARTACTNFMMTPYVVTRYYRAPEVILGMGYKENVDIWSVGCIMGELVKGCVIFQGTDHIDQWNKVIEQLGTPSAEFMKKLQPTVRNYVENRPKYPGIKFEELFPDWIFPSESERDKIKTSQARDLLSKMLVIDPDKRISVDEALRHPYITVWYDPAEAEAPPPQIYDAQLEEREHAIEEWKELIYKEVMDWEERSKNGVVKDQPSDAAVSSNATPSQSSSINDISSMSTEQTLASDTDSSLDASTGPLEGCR
Sequence of ABL1(E255K)-phosphorylated (P00519 whole entry E255K): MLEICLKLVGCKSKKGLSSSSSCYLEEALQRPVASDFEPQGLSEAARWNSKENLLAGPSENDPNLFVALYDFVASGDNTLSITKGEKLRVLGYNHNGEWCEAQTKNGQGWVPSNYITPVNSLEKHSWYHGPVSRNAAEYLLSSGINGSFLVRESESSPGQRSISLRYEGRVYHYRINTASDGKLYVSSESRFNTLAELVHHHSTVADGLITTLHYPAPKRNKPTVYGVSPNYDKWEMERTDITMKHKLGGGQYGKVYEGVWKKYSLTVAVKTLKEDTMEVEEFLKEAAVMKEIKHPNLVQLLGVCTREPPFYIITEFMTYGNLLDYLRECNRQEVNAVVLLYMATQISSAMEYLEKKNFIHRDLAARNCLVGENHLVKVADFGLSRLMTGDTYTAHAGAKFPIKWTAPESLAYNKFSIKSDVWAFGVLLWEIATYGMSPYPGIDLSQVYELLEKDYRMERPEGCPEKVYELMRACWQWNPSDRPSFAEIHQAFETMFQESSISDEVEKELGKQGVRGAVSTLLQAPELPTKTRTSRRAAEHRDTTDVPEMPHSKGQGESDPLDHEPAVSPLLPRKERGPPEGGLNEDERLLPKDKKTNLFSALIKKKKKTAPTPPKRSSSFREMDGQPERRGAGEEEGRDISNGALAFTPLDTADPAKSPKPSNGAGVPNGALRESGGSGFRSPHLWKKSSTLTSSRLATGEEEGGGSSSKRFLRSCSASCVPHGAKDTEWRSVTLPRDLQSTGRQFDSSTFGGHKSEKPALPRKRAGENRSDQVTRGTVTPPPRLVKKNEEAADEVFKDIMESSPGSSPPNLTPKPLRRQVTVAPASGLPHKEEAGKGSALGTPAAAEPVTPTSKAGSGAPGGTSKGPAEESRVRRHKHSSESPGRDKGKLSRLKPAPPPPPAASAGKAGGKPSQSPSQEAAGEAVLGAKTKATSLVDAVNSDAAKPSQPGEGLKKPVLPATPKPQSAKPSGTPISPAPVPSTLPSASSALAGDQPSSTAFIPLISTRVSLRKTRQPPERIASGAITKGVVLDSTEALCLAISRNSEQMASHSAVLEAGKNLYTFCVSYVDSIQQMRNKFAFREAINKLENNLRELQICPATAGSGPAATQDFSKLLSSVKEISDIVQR
Sequence of BRAF(V600E) (P15056 whole entry V600E): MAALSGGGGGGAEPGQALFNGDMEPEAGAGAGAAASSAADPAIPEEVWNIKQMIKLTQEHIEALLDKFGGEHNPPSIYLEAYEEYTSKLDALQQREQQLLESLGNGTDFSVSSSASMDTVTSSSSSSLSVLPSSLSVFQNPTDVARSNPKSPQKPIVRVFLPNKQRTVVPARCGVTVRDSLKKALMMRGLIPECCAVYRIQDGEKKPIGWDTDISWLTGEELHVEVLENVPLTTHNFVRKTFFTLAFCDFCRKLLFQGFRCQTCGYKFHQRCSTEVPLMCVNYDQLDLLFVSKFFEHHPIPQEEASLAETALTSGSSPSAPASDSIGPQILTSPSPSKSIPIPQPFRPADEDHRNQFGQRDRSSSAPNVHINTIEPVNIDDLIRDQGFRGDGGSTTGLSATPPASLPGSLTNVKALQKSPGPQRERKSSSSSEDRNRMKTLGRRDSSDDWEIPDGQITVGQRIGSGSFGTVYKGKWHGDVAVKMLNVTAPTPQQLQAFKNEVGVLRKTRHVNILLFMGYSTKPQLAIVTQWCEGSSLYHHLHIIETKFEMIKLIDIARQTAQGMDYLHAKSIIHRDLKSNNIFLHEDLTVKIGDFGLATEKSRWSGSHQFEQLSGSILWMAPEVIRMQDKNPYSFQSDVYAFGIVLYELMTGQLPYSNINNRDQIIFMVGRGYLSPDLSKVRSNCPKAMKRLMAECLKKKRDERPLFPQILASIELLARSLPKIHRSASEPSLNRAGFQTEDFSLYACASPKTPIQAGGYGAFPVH

For the compound `C=C1CCCCCCCCCC(CO)C1=O` (centres unmarked) [EP009, 2-(Hydroxymethyl)-12-methylenecyclododecanone], the “Kinase Activity (% of Control)” value in assay [1] is on record as 64 % of Control; at BRAF(V600E), 76 % of Control; at IKK-beta it was 73 % of Control; on JNK2 it was 100 % of Control; at MAP3K4 it was 87 % of Control.
